Holding throughout (experiment): relative viability (nuclei count vs DMSO), 5 days (fraction); higher = more cells survive
Compound in the test “AZ3146 + Alpelisib”: CN1CCC(CC1)OC2=CC(=C(C=C2)NC3=NC=C4C(=N3)N(C(=O)N4C)C5CCCC5)OC [AZ3146] + Cc1nc(NC(=O)N2CCC[C@H]2C(N)=O)sc1-c1ccnc(C(C)(C)C(F)(F)F)c1 [Alpelisib] (partner 2 µM)
The method in brief: (§1)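 Relative viability is defined as nuclei in treated wells over nuclei in vehicle wells. Duplicate plates were run and medians reported. Lung cancer cell lines in 1536-well plates were dosed by pin tool one day after seeding, with one drug or with a fixed anchor-drug dose plus five library-drug doses (not always all listed) in √10 steps, and nuclei were counted after 5 days.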

Compound in the test “AZ3146 + Crizotinib”: CN1CCC(CC1)OC2=CC(=C(C=C2)NC3=NC=C4C(=N3)N(C(=O)N4C)C5CCCC5)OC [AZ3146] + C[C@@H](Oc1cc(-c2cnn(C3CCNCC3)c2)cnc1N)c1c(Cl)ccc(F)c1Cl [Crizotinib] (partner 1 µM)
The method, boiled down:
as §1

Compound in the test “GSK-J4 + Trametinib”: CCOC(=O)CCNc1cc(N2CCc3ccccc3CC2)nc(-c2ccccn2)n1 [GSK-J4] + CC(=O)Nc1cccc(-n2c(=O)n(C3CC3)c(=O)c3c(Nc4ccc(I)cc4F)n(C)c(=O)c(C)c32)c1 [Trametinib] (partner 0.02 µM)
The method in brief: as §1

Compound in the test “GSK-J4 + Decitabine”: CCOC(=O)CCNc1cc(N2CCc3ccccc3CC2)nc(-c2ccccn2)n1 [GSK-J4] + Nc1ncn([C@H]2C[C@H](O)[C@@H](CO)O2)c(=O)n1 [Decitabine] (partner 2 µM)
The method, boiled down: as §1

Take UMC-11: the relative viability with AZ3146 + Alpelisib (first compound 0.08 µM) stood at 1.08; with AZ3146 + Alpelisib (first compound 0.253 µM) it was 0.98; with AZ3146 + Alpelisib (first compound 0.8 µM), 1.11; with AZ3146 + Alpelisib (first compound 2.53 µM), 0.861; with AZ3146 + Alpelisib (first compound 8 µM), 0.296; with AZ3146 + Crizotinib (first compound 0.08 µM), 0.569. The relative viability was determined as 0.636 with AZ3146 + Crizotinib (first compound 0.253 µM); 0.461 in the test with AZ3146 + Crizotinib (first compound 0.8 µM); 0.177 in the test with AZ3146 + Crizotinib (first compound 2.53 µM); 0.136 with AZ3146 + Crizotinib (first compound 8 µM); 0.666 in the test with GSK-J4 + Trametinib (first compound 0.5 µM); 0.336 in the test with GSK-J4 + Trametinib (first compound 1.581 µM). Moreover, the relative viability with GSK-J4 + Trametinib (first compound 5 µM) was 0.255; with GSK-J4 + Trametinib (first compound 15.81 µM) it was 0.834; in the test with GSK-J4 + Trametinib (first compound 50 µM), 0.521; in the test with GSK-J4 + Decitabine (first compound 0.5 µM), 0.93; in the test with GSK-J4 + Decitabine (first compound 1.581 µM), 0.642; with GSK-J4 + Decitabine (first compound 15.81 µM), 0.582. For the same cell line, the relative viability with GSK-J4 + Decitabine (first compound 50 µM) was 0.343.

These data come from the supplement of paper PMC10307832.
